The test concerns HMEL-BRAF^V600E melanocytes. The test is described as follows: In vivo functional genetic screen and secondary validation: kinase-transduced HMEL cells implanted in nude mice. Also noted: species or system human. From the text: A ‘cancer-kinase’ library was constructed containing sequence-verified ORFs in a lentiviral vector for 110 of the 120 kinases reported to sustain somatic driver mutations in diverse human cancers. This library was pooled and introduced into a human HMEL-BRAF^V600E melanocyte model system engineered with BRAF^V600E and TERT as well as p53DD and CDK4-R24C to inactivate the […] pathways, respectively. The HMEL-BRAF^V600E melanocyte profile, while representing the most common clinically-definable genetic profile in human melanoma, is insufficient to drive efficient melanoma formation following orthotopic transplantation in the skin (penetrance of 10% and latency of 26 weeks). In contrast, 40% of HMEL-BRAF^V600E melanocytes transduced with the cancer kinase pools developed tumors with an average latency of 13 weeks (range 10-18 weeks).
In vivo functional genetic screens: Lentivirus were prepared by co-transfecting 293T cells with individual vector backbones and standard virus packaging systems for subsequent collection of viral supernatants. Viral supernatants were then pooled randomly to generate 8 pools of high-titer lentiviral stocks. HMEL cells were transduced with either GFP control lentivirus or each representative lentiviral pool in the presence of 8 ug/ml polybrene (Company). […]

“JNK2 WT: wild type MAPK9/JNK2 kinase ORF expressed in HMEL cells”: the Tumorigenicity in vivo entry (WT or mutant kinase expressed individually) is given as “YES”. For the setting “secondary validation, kinase transduced individually into HMEL-BRAF^V600E melanocytes”, this substance returned a tumor penetrance of 50%.

Values taken from patent US20130040853A1, “Context Specific Genetic Screen Platform to Aid in Gene Discovery and Target Validation” (Dana-Farber Cancer Institute Inc., priority 2010, published 2013).
